Reference: US4618612A (Medosan Industrie Biochimiche Riunite S.p.A., priority 1983, dated 1986)

Tests used:
[1] = test system: carragenin-induced edema; assay: Carragenin-induced edema test (Winter); format: in vivo, rat
Experimental: This effect was measured with an experimental model reproducing acute inflammation in rats: the carragenin-induced edema test according to C.

[2] = test system: gastric mucosa; assay: Gastric tolerance (ulcerogenic activity); format: in vivo, male Wistar rats; conditions: 4 days; for Mean Severity: scale 0-5
Experimental: This was studied by conducting tests of ulcerogenic activity in male Wistar rats, weighing 180 g on the average, in groups of 10 animals each. Three doses of each substance were given, and one group of animals was treated with vehicle only in a volume of 10 ml/kg bodyweight. Each dose was given orally for four consecutive days; on the fifth day, the rats were killed and autopsied. The ulcerogenic effect was assessed according to the following scale:
(1) each hemorrhage point ≥1 mm was evaluated as 1 lesion
(2) hemorrhage points smaller than 1 mm were counted as follows:
(b) from 1 to 19:2 lesions
(c) from 1 to 29:3 lesions
(2) gastric mucosa irritation: 1
(3) hemorrahge points <1 mm: 2
(4) hemorrhage points between 1 and 3 mm: 3
(5) hemorrhage points >3 mm: 4
This scale was used to calculate the following gastric damage index: [formula]

[3] = test system: rat platelet-rich plasma (ADP-induced platelet aggregation); assay: Anti-platelet aggregation activity in vitro (Born's method), rat platelet-rich plasma, ADP-induced; format: cell-based
Experimental: Preparations (A), (B), (C), (D), (E) and (F) were administered "in vivo" orally and/or parenterally in 0.5% carboxymethylcellulose suspensions in physiological saline at neutral pH. When tested "in vitro", they were finely dispersed in neutral pH physiological saline.
This was studied "in vitro" following Born's method (Born G. W. R., Nature, 194, 937 (1962)) and inducing platelet aggregation with ADP.
Platelet-rich plasma was obtained by centrifugation for 10 minutes at 2,000 rpm of 9 parts rat blood to 1 part 3.13% sodium citrate solution. In performing the aggregation test, 0.2 ml of platelet rich plasm was mixed with a 0.9% NaCl solution to which the test substance was added to a final volume of 0.6 ml; the resulting mixture was incubated at 27° C. for 3 minutes. After inducement with ADP, aggregation was measured continuously with an Elvi 840 Aggregometer (Elvi Logos-Milan) to follow its course. The anti-aggregant effects were determined from the difference in the light transmission of the sample with respect to an ADP control.
Table I reports the platelet aggregation inhibition using different doses of the test compounds at a constant ADP concentration.

[4] = in vivo; conditions: mouse, mice
[5] = in vivo; conditions: rat, rats
[6] = test system: human platelet aggregation (PRP); assay: Human platelet aggregation in vitro induced by ADP, adrenalin, collagen or arachidonate; format: cell-based
Experimental: Blood samples (20 ml) were obtained by venal puncture of the antecubital fossa using plastic syringes containing trisodium citrate as anticoagulant (final concentration 0.19% w/v). Platelet rich plasma (PRP) was harvested after slow centrifugation at 170 g for 12 min. and 0.2 ml aliquots were dispensed into plastic cuvettes and stored at room temperature throughout the experiment.
Aliquots of 0.2 ml PRP from each sample were treated with ADP, adrenalin, collagen or arachidonate, until the threshold concentrations of these aggregating agents had been reached. The threshold concentration is defined as the minimum whcih will produce irreversible aggregation. Once established, the threshold concentration was used to challenge test samples of each of the 2 test compounds or vehicle (DMSO) which had been incubated for 1 min. at 37 C. in the holding cell of the agregometer, prior to addition of the aggregating agent.
This was reported as the final concentration in the PRP after addition of 2.5-10 ul of test substance.

[7] = ADP 2 μmol/l, dose 1 V/ml (Table II)
[8] = ADP 5 μmol/l, dose 1 V/ml (Table II)
[9] = ADP 7.08 μmol/l, dose 1 /ml (Table I)
[10] = ADP 7.08 μmol/l, dose 5 /ml (Table I)

| Compound | % Edema Inhibition ([1]; I.P., 10 mg/kg, 3 h) | % Edema Inhibition ([1]; I.P., 10 mg/kg, 6 h) | % Edema Inhibition ([1]; I.P., 10 mg/kg, 24 h) | % Edema Inhibition ([1]; I.P., 50 mg/kg, 3 h) | % Edema Inhibition ([1]; I.P., 50 mg/kg, 6 h) | % Edema Inhibition ([1]; I.P., 50 mg/kg, 24 h) | % Edema Inhibition ([1]; I.P., 100 mg/kg, 3 h) | % Edema Inhibition ([1]; I.P., 100 mg/kg, 6 h) | % Edema Inhibition ([1]; I.P., 100 mg/kg, 24 h) | % Edema Inhibition ([1]; OS, 10 mg/kg, 3 h) | % Edema Inhibition ([1]; OS, 10 mg/kg, 6 h) | % Edema Inhibition ([1]; OS, 10 mg/kg, 24 h) | % Edema Inhibition ([1]; OS, 50 mg/kg, 3 h) | % Edema Inhibition ([1]; OS, 50 mg/kg, 6 h) | % Edema Inhibition ([1]; OS, 50 mg/kg, 24 h) | % Edema Inhibition ([1]; OS, 100 mg/kg, 3 h) | % Edema Inhibition ([1]; OS, 100 mg/kg, 6 h) | % Edema Inhibition ([1]; OS, 100 mg/kg, 24 h) | % Inhibition [3, 7] [%] | % Inhibition [3, 8] [%] | also measured |
| --- | --- | --- | --- | --- | --- | --- | --- | --- | --- | --- | --- | --- | --- | --- | --- | --- | --- | --- | --- | --- | --- |
| Cc1ccc(C(=O)c2ccc(CC(=O)O)n2C)cc1 [Na Tolmetin 2H2 O, 1-methyl-5-p-methylbenzoylpyrrol-2-acetic acid, reference compound] | 32,0% | 23,0% | 0,0% | 48,6% | 53,2% | 0,0% | 67,3% | 55,1% | 0,0% | 30,5% | 24,0% | 0,0% | 49,0% | 52,0% | 0,0% | 59,0% | 54,2% | 0,0% |  |  | % incidence 10 ([2]; 50 mg/kg oral): 7 %/10; Mean No. lesions ([2]; 50 mg/kg oral): 2; Mean Severity ([2]; 50 mg/kg oral): 2; % incidence 10 ([2]; 100 mg/kg oral): 10 %/10; Mean No. lesions ([2]; 100 mg/kg oral): 2,5; Mean Severity ([2]; 100 mg/kg oral): 3,5; % incidence 10 ([2]; 200 mg/kg oral): 10 %/10; Mean No. lesions ([2]; 200 mg/kg oral): 3; Mean Severity ([2]; 200 mg/kg oral): 4 |
| Cn1c(=O)c2c(ncn2CCCOC(=O)Cc2ccc(-n3cccc3)cc2)n(C)c1=O [(D)] | 31,8% | 32,7% | 1,0% | 50,1% | 45,9% | 8,6% | 67,0% | 65,4% | 9,6% | 39,0% | 32,0% | 0,0% | 53,1% | 52,0% | 11,6% | 66,8% | 64,1% | 16,7% | 31 | 24 | LD50 ([4]; ip, I.P.): 780 mg/kg; LD50 ([4]; po, OS): 1100 mg/kg; LD50 ([5]; ip, I.P.): 675 mg/kg; LD50 ([5]; po, OS): 1000 mg/kg |
| Cc1ccc(C(=O)c2ccc(CC(=O)OC(Cn3cnc4c3c(=O)n(C)c(=O)n4C)Cn3cnc4c3c(=O)n(C)c(=O)n4C)n2C)cc1 [(F)] | 43,8% | 34,8% | 0,0% | 56,0% | 33,0% | 0,0% | 78,6% | 65,6% | 15,8% | 23,9% | 24,0% | 0,0% | 47,0% | 46,0% | 0,0% | 66,0% | 66,0% | 12,0% | 32 | 23 | LD50 ([4]; ip, I.P.): 1240 mg/kg; LD50 ([4]; po, OS): 1680 mg/kg; LD50 ([5]; ip, I.P.): 1050 mg/kg; LD50 ([5]; po, OS): 1500 mg/kg |
| 1-Methyl-5-p-methylbenzoylpyrrol-2-acetate of 7-(3-oxypropyl)theophylline [(C)] | 38,0% | 36,2% | 0,0% | 53,1% | 50,0% | 2,0% | 69,5% | 62,0% | 10,0% | 40,2% | 34,0% | 0,0% | 59,0% | 57,0% | 22,2% | 70,0% | 66,1% | 31,0% | 36 | 27 | % Inhibition [3, 9]: 22%; % Inhibition ([3]; ADP 7.08 μmol/l, dose 2,5 /ml (Table I)): 75%; % Inhibition [3, 10]: 90%; Minimum Effective Concentration (Final in PRP) ([6]; ADP, volunteer 1 (person delta for (A), person for (C))): 100 µM; Minimum Effective Concentration (Final in PRP) ([6]; ADP, volunteer 2 (donor gamma)): 100 µM; Minimum Effective Concentration (Final in PRP) ([6]; ADP, volunteer 3 (person alpha for (A), person for (C))): 250 µM; Minimum Effective Concentration (Final in PRP) ([6]; Adrenalin, volunteer 1): 100 µM; Minimum Effective Concentration (Final in PRP) ([6]; Adrenalin, volunteer 2 (donor gamma)): 0.25 µM; Minimum Effective Concentration (Final in PRP) ([6]; Adrenalin, volunteer 3): 100 µM; Minimum Effective Concentration (Final in PRP) ([6]; Arachidonate, volunteer 1): 400 µM; Minimum Effective Concentration (Final in PRP) ([6]; Arachidonate, volunteer 2 (donor gamma)): 10 µM; Minimum Effective Concentration (Final in PRP) ([6]; Arachidonate, volunteer 3): 10 µM; Minimum Effective Concentration (Final in PRP) ([6]; Collagen, volunteer 1): 350 µM; Minimum Effective Concentration (Final in PRP) ([6]; Collagen, volunteer 2 (donor gamma)): 250 µM; Minimum Effective Concentration (Final in PRP) ([6]; Collagen, volunteer 3): 100 µM |
| CC(=O)Oc1ccccc1C(=O)O [aspirin, reference compound] |  |  |  |  |  |  |  |  |  |  |  |  |  |  |  |  |  |  | 29 | 19 | % Inhibition [3, 9]: 15%; % Inhibition [3, 10]: 60%; % Inhibition ([3]; ADP 7.08 μmol/l, dose 10 /ml (Table I)): 100% |
| Cc1ccc(C(=O)c2ccc(CC(=O)NCC(=O)OCCn3cnc4c3c(=O)n(C)c(=O)n4C)n2C)cc1 [(E)] | 31,8% | 29,0% | 0,0% | 56,9% | 54,8% | 12,0% | 80,0% | 76,9% | 23,0% | 34,0% | 33,8% | 0,0% | 54,4% | 49,8% | 10,0% | 78,8% | 79,0% | 32,6% | 35 | 29 | LD50 ([4]; ip, I.P.): 1100 mg/kg; LD50 ([4]; po, OS): 1400 mg/kg; LD50 ([5]; ip, I.P.): 987 mg/kg; LD50 ([5]; po, OS): 1340 mg/kg |
